Test results taken from the supplement of paper PMC10307832.

compound: Cc1ccc2nc(NCCN)c3ncc(C)n3c2c1 + CC1(C)CCC(c2ccc(Cl)cc2)=C(CN2CCN(c3ccc(C(=O)NS(=O)(=O)c4ccc(N[C@H](CCN5CCOCC5)CSc5ccccc5)c(S(=O)(=O)C(F)(F)F)c4)cc3)CC2)C1 [Navitoclax] (partner 0.5 µM); experiment: relative viability (nuclei count vs DMSO), 5 days (fraction); higher = more cells survive; details: first compound 0.04 µM
Method in brief: (§1)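 The day after seeding in 1536-well plates, lung cancer cell lines were treated by pin tool with a single drug, or with a fixed anchor-drug dose together with five library-drug doses (not always all listed) in √10 steps. After 5 days, a combined fix-and-stain solution (final 0.05% Triton X-100, 1% formaldehyde, 1 ug/ml Hoechst) was added. Nuclei counted on 4× images gave relative viability as treated counts over vehicle counts, reported as the median of duplicate plates.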

In order of falling relative viability:
1. NCI-H1650  1.3
2. NCI-H1703  1.3
3. NCI-H2085  1.27
4. A549  1.27
5. HCC-366  1.26
6. NCI-H838  1.23
7. NCI-H520  1.19
8. EMC-BAC-2  1.17
9. HCC-44  1.1
10. SW 1573  1.07
11. COR-L23  1.05
12. NCI-H1299  1.02
13. NCI-H2087  0.985
14. ChaGo-K-1  0.983
15. NCI-H596  0.945
16. NCI-H1666  0.886
17. NCI-H2126  0.881
18. LK-2  0.831
19. Calu-6  0.829
20. COR-L 105  0.809
21. NCI-H1993  0.799
22. IA-LM  0.792
23. NCI-H2170  0.687
24. LOU-NH91  0.684
25. H3255  0.666
26. NCI-H1792  0.642
27. NCI-H1793  0.467
28. EBC-1  0.388
29. NCI-H727  0.379

same assay, conditions: first compound 0.1265 µM

In order of falling relative viability:
1. A549  1.25
2. EMC-BAC-2  1.18
3. ChaGo-K-1  1.15
4. NCI-H2085  1.12
5. NCI-H520  1.09
6. NCI-H2087  1.09
7. HCC-366  1.07
8. NCI-H838  1.05
9. NCI-H1299  1.04
10. NCI-H1650  1
11. COR-L23  0.944
12. SW 1573  0.938
13. NCI-H1666  0.922
14. HCC-44  0.901
15. NCI-H596  0.896
16. NCI-H2126  0.886
17. NCI-H1703  0.881
18. COR-L 105  0.802
19. Calu-6  0.799
20. NCI-H1993  0.782
21. IA-LM  0.779
22. LOU-NH91  0.687
23. NCI-H2170  0.659
24. NCI-H1792  0.658
25. LK-2  0.65
26. H3255  0.479
27. NCI-H727  0.475
28. NCI-H1793  0.417
29. EBC-1  0.393

same assay, conditions: first compound 0.4 µM

In order of falling relative viability:
1. A549  1.37
2. SW 1573  1.16
3. NCI-H838  1.16
4. NCI-H1650  1.12
5. NCI-H520  1.12
6. COR-L23  1.1
7. NCI-H2085  1.08
8. EMC-BAC-2  1.06
9. NCI-H1299  1.06
10. Calu-6  1.05
11. HCC-366  1.03
12. NCI-H2087  1.01
13. NCI-H1703  1
14. NCI-H1666  0.96
15. HCC-44  0.951
16. NCI-H596  0.916
17. ChaGo-K-1  0.913
18. LK-2  0.886
19. NCI-H2126  0.815
20. COR-L 105  0.802
21. LOU-NH91  0.724
22. IA-LM  0.707
23. NCI-H1993  0.676
24. NCI-H1792  0.645
25. H3255  0.638
26. NCI-H2170  0.59
27. NCI-H1793  0.418
28. NCI-H727  0.41
29. EBC-1  0.327

same assay, conditions: first compound 1.265 µM

In order of rising relative viability:
1. NCI-H727  0.238
2. EBC-1  0.334
3. NCI-H1793  0.477
4. H3255  0.535
5. NCI-H2170  0.601
6. NCI-H1792  0.619
7. IA-LM  0.623
8. LOU-NH91  0.672
9. NCI-H596  0.678
10. NCI-H2126  0.746
11. NCI-H1993  0.752
12. LK-2  0.77
13. Calu-6  0.807
14. HCC-44  0.829
15. NCI-H2087  0.856
16. NCI-H1666  0.89
17. COR-L 105  0.899
18. COR-L23  0.973
19. ChaGo-K-1  0.976
20. HCC-366  0.997
21. NCI-H1299  1.02
22. NCI-H2085  1.06
23. SW 1573  1.1
24. NCI-H520  1.1
25. NCI-H838  1.15
26. EMC-BAC-2  1.15
27. NCI-H1703  1.18
28. A549  1.2
29. NCI-H1650  1.25

same assay, conditions: first compound 4 µM

In order of rising relative viability:
1. EBC-1  0.191
2. Calu-6  0.321
3. NCI-H727  0.413
4. H3255  0.469
5. NCI-H1793  0.476
6. IA-LM  0.587
7. NCI-H1792  0.594
8. NCI-H2170  0.598
9. LOU-NH91  0.65
10. SW 1573  0.689
11. NCI-H1993  0.692
12. COR-L 105  0.698
13. NCI-H1703  0.707
14. NCI-H1666  0.776
15. ChaGo-K-1  0.782
16. LK-2  0.789
17. NCI-H2126  0.792
18. COR-L23  0.886
19. NCI-H1299  0.898
20. NCI-H1650  0.934
21. HCC-44  0.937
22. NCI-H520  0.953
23. A549  0.955
24. HCC-366  1.02
25. NCI-H2087  1.06
26. NCI-H2085  1.08
27. NCI-H596  1.11
28. NCI-H838  1.12
29. EMC-BAC-2  1.17

compound: O=C(/C=C/c1ccccc1)NC(NC(=S)Nc1cccc2cccnc12)C(Cl)(Cl)Cl [Salubrinal] + CC1(C)CCC(c2ccc(Cl)cc2)=C(CN2CCN(c3ccc(C(=O)NS(=O)(=O)c4ccc(N[C@H](CCN5CCOCC5)CSc5ccccc5)c(S(=O)(=O)C(F)(F)F)c4)cc3)CC2)C1 [Navitoclax] (partner 0.5 µM); experiment: as above; details: first compound 0.08 µM
Method in brief: as §1

In order of rising relative viability:
1. EBC-1  0.349
2. NCI-H1793  0.476
3. NCI-H727  0.519
4. H3255  0.637
5. NCI-H2170  0.662
6. COR-L 105  0.715
7. NCI-H1792  0.745
8. LOU-NH91  0.81
9. IA-LM  0.847
10. NCI-H2126  0.897
11. Calu-6  0.903
12. NCI-H1666  0.979
13. NCI-H596  1.01
14. NCI-H1993  1.02
15. SW 1573  1.02
16. NCI-H2087  1.04
17. HCC-44  1.06
18. NCI-H1299  1.06
19. LK-2  1.07
20. ChaGo-K-1  1.07
21. NCI-H520  1.16
22. NCI-H1650  1.17
23. COR-L23  1.2
24. NCI-H2085  1.26
25. HCC-366  1.27
26. NCI-H838  1.35
27. NCI-H1703  1.39
28. A549  1.4
29. EMC-BAC-2  1.53

same assay, conditions: first compound 0.253 µM

In order of falling relative viability:
1. NCI-H838  1.21
2. NCI-H1703  1.12
3. A549  1.11
4. NCI-H596  1.09
5. NCI-H1299  1.07
6. NCI-H1650  1.06
7. NCI-H520  1.04
8. NCI-H2087  1.02
9. EMC-BAC-2  1.01
10. SW 1573  1
11. NCI-H2085  1
12. NCI-H1666  0.992
13. COR-L23  0.952
14. NCI-H2126  0.913
15. NCI-H1993  0.902
16. HCC-44  0.899
17. HCC-366  0.871
18. ChaGo-K-1  0.849
19. LK-2  0.793
20. IA-LM  0.79
21. Calu-6  0.749
22. LOU-NH91  0.73
23. COR-L 105  0.718
24. NCI-H2170  0.581
25. NCI-H727  0.482
26. H3255  0.481
27. NCI-H1793  0.432
28. EBC-1  0.332

same assay, conditions: first compound 0.8 µM

In order of falling relative viability:
1. ChaGo-K-1  1.58
2. NCI-H520  1.32
3. NCI-H1792  1.26
4. NCI-H1666  1.24
5. NCI-H2085  1.23
6. NCI-H838  1.22
7. A549  1.22
8. EMC-BAC-2  1.2
9. COR-L23  1.15
10. NCI-H1650  1.13
11. NCI-H2087  1.11
12. NCI-H1299  1.07
13. LK-2  1.05
14. HCC-44  0.999
15. HCC-366  0.985
16. NCI-H1993  0.976
17. NCI-H1703  0.971
18. NCI-H596  0.959
19. SW 1573  0.937
20. NCI-H2126  0.914
21. Calu-6  0.888
22. IA-LM  0.782
23. COR-L 105  0.76
24. LOU-NH91  0.737
25. NCI-H2170  0.631
26. H3255  0.582
27. NCI-H727  0.443
28. EBC-1  0.435
29. NCI-H1793  0.431

same assay, conditions: first compound 2.53 µM

In order of rising relative viability:
1. NCI-H1793  0.351
2. NCI-H727  0.395
3. EBC-1  0.399
4. H3255  0.523
5. IA-LM  0.595
6. NCI-H2170  0.598
7. NCI-H1792  0.669
8. LOU-NH91  0.699
9. COR-L 105  0.765
10. NCI-H1993  0.799
11. NCI-H2126  0.808
12. NCI-H596  0.869
13. Calu-6  0.877
14. NCI-H1703  0.901
15. COR-L23  0.927
16. SW 1573  0.929
17. NCI-H1666  0.93
18. LK-2  0.958
19. NCI-H2087  0.964
20. HCC-44  0.97
21. HCC-366  0.975
22. NCI-H1299  0.986
23. NCI-H2085  1.07
24. NCI-H520  1.11
25. NCI-H838  1.15
26. EMC-BAC-2  1.16
27. NCI-H1650  1.19
28. A549  1.21
29. ChaGo-K-1  1.37

same assay, conditions: first compound 8 µM

In order of falling relative viability:
1. NCI-H838  1.23
2. NCI-H2085  1.21
3. A549  1.21
4. NCI-H520  1.18
5. NCI-H1650  1.16
6. EMC-BAC-2  1.15
7. ChaGo-K-1  1.12
8. NCI-H1299  1.11
9. SW 1573  1.01
10. NCI-H596  1.01
11. HCC-366  0.971
12. NCI-H1703  0.964
13. NCI-H2087  0.945
14. LK-2  0.921
15. NCI-H1666  0.878
16. NCI-H2126  0.867
17. COR-L23  0.865
18. Calu-6  0.809
19. HCC-44  0.802
20. NCI-H1993  0.733
21. COR-L 105  0.723
22. LOU-NH91  0.617
23. H3255  0.564
24. IA-LM  0.533
25. NCI-H2170  0.503
26. NCI-H727  0.474
27. NCI-H1792  0.458
28. NCI-H1793  0.339
29. EBC-1  0.287

compound: O=C(/C=C/c1ccccc1)NC(NC(=S)Nc1cccc2cccnc12)C(Cl)(Cl)Cl [Salubrinal] + COc1cc2c(Oc3ccc(NC(=O)C4(C(=O)Nc5ccc(F)cc5)CC4)cc3F)ccnc2cc1OCCCN1CCOCC1 [Foretinib] (partner 0.25 µM); experiment: as above; details: first compound 0.08 µM
Method in brief: as §1

In order of falling relative viability:
1. NCI-H2126  1.51
2. NCI-H1650  1.26
3. NCI-H2085  1.2
4. NCI-H2170  1.14
5. NCI-H838  1.13
6. NCI-H2087  1.12
7. NCI-H2342  1.1
8. NCI-H727  1.09
9. NCI-H1666  0.987
10. LK-2  0.983
11. Calu-6  0.979
12. EMC-BAC-2  0.975
13. NCI-H596  0.949
14. HCC-366  0.929
15. NCI-H520  0.914
16. SW 1573  0.875
17. LCLC-103H  0.849
18. NCI-H1993  0.818
19. NCI-H358  0.783
20. NCI-H1703  0.319
21. EBC-1  0.112
